± gives the expanded uncertainty stated by the source.
Tests used:
[1] = molar heat capacity at constant pressure; settings: 101.33 kPa, Liquid, Small sample (50 mg) DSC
[2] = Liquid, Alternating current cell with electrodes

CCOS(=O)(=O)[O-].CCn1cc[n+](C)c1 [1-ethyl-3-methylimidazolium ethyl sulfate]
Settings | electrical conductivity, [2] [S/m] | molar heat capacity at constant pressure, [1] [J/K/mol]
293.2 K | 0.31 ± 0.022 | –
298.2 K | 0.398 ± 0.025 | –
303.2 K | 0.493 ± 0.008 | 429.81 ± 56
308.2 K | 0.603 ± 0.028 | 431.7 ± 56
313.2 K | 0.722 ± 0.028 | 435.01 ± 57
318.2 K | 0.852 ± 0.028 | 437.14 ± 57
323.2 K | 1 ± 0.025 | 441.39 ± 58
328.2 K | 1.17 ± 0.025 | 444.46 ± 58
333.2 K | 1.34 ± 0.025 | 447.3 ± 59
338.2 K | – | 450.13 ± 59
343.2 K | 1.74 ± 0.028 | 452.97 ± 59
348.2 K | – | 456.51 ± 60
353.2 K | 2.15 ± 0.028 | 461 ± 60
358.2 K | – | 463.6 ± 61

CCn1cc[n+](C)c1.F[B-](F)(F)F [1-ethyl-3-methylimidazolium tetrafluoroborate]
Settings | electrical conductivity, [2] [S/m] | molar heat capacity at constant pressure, [1] [J/K/mol]
293.2 K | 1.38 ± 0.025 | –
298.2 K | 1.57 ± 0.028 | –
303.2 K | 1.789 ± 0.008 | 306.26 ± 40
308.2 K | 2.04 ± 0.028 | 308.44 ± 40
313.2 K | 2.32 ± 0.036 | 310.61 ± 41
318.2 K | 2.59 ± 0.036 | 312.79 ± 41
323.2 K | 2.91 ± 0.033 | 314.38 ± 41
328.2 K | 3.25 ± 0.033 | 315.37 ± 41
333.2 K | 3.59 ± 0.031 | 316.36 ± 41
338.2 K | – | 318.34 ± 42
343.2 K | 4.35 ± 0.036 | 319.33 ± 42
348.2 K | – | 321.3 ± 42
353.2 K | 5.18 ± 0.031 | 322.89 ± 42
358.2 K | – | 323.48 ± 42

CCn1cc[n+](C)c1.O=S(=O)([O-])C(F)(F)F [1-ethyl-3-methylimidazolium trifluoromethanesulfonate]
Settings | electrical conductivity, [2] [S/m] | molar heat capacity at constant pressure, [1] [J/K/mol]
293.2 K | 0.834 ± 0.028 | –
298.2 K | 0.979 ± 0.028 | –
303.2 K | 1.16 ± 0.033 | 379.42 ± 50
308.2 K | 1.34 ± 0.036 | 381.5 ± 50
313.2 K | 1.52 ± 0.031 | 383.33 ± 50
318.2 K | 1.74 ± 0.031 | 385.41 ± 50
323.2 K | 1.94 ± 0.033 | 387.49 ± 51
328.2 K | 2.17 ± 0.039 | 389.57 ± 51
333.2 K | 2.42 ± 0.036 | 391.65 ± 51
338.2 K | – | 393.74 ± 52
343.2 K | 2.94 ± 0.028 | 395.82 ± 52
348.2 K | – | 397.9 ± 52
353.2 K | 3.51 ± 0.036 | 399.72 ± 52
358.2 K | – | 401.8 ± 53
